Data on 2 compounds can be found in US20070225245A1, “Viral vector driven mutant bacterial cytosine deaminase gene and uses thereof” (priority 1998, published 2007).

In brackets after ≈: the same amount, converted by molar mass.

The test system of assay [1] is Intracranial D54MG Human Gliomas. The experiment in a line: Survival, intracranial glioma, intratumoral Ad and systemic 5-FC. Format: in vivo, SCID mice. The conditions noted are these: Table 7; Saline (no virus) + 5-FC. The procedure: U87MG and D54MG cells (5×10^5) were stereotactically injected into the right frontal cortex of SCID mice. Tumors were established for 5 days before intratumoral injection of AdCMVCD (10^8 or 10^9 pfu/mouse). Mice were then treated IP with 5-FC (500 mg/kg bid) on days 2-9 post infection and monitored for survival. Kaplan-Meier survival curves and median and 20% survival values were calculated by standard methods.

For another assay, the system named is D54MG xenografts. The experiment in a line: Subcutaneous human glioma xenograft model, tumor growth. Type of assay: in vivo, athymic nude mice. Here is the method: Treatment was started at the time of established tumor growth (Day 0 equal to 14 days after tumor cell injection). Animals were infected i.t. with 1×10^8 TCID50 AdbCDwt or AdbCD-D314A on Days 0, 7, and 14, and then irradiated with 2 Gy on Days 4, 7 and 10. 5-FC was injected i.p. at 500 mg/kg on Days 0 to 4, 7 to 11, and 14 to 18. Data points represent the mean change in tumor surface area relative to Day 0 for each group of animals.
Treatment was started at the time of established tumor growth (Day 0 equal to 17 days after tumor cell injection). Animals were infected i.t. with 1×10^8 TCID50 AdbCD-D314A on Days 0, 7, and 14, and irradiated with 5 Gy on Days 4, 7 and 10. 5-FC was injected i.p. at 500 mg/kg on Days 0 to 4, 7 to 11, and 14 to 18. Data points represent the mean change in tumor surface area relative to Day 0 for each group of animals.
To assess anti-tumor effects on established solid tumors, D54MG glioma cells (2×10^7) were injected s.c. into female athymic nude mice. Treatment was started 14 days post-tumor cell injection at the time of established tumor growth (tumors were 6-8 mm in diameter), noted as Day 0. […] Tumor size was monitored twice a week with Vernier calipers. Tumor surface area (length×width in mm^2) was calculated for each group of 10 mice and plotted as a percentage change over time relative to the mean size on Day 0 for each group.
For orientation: In xenograft studies the graft and the host belong to different species.

A further assay relates to U251MG. As to the kind of experiment: Crystal violet cytotoxicity assay (5-FU, or 5-FC after Ad infection). Conditions: Homo sapiens, U-251, 120 h, 5 days. Type of assay: cell-based. An excerpt:
(§1) Twenty-four hours later cells were infected with AdbCD-D314A or AdbCDwt at various MOI.

The test system of another assay is S2-VP10. The assay is described as above. Conditions: Homo sapiens, 120 h, 5 days. Format: cell-based.
From the text: as §1

The test system of assay [2] is D54MG. Described as above. Format: cell-based. The conditions noted are these: Homo sapiens, 120 h, 5 days.
From the text: as §1

The subject of the next assay is MIA PaCa-2. The description is as above. Format: cell-based. Conditions: Homo sapiens, 120 h, 5 days.
From the text: as §1

A further assay concerns PANC-1. The assay is described as above. Format: cell-based. The conditions noted are these: Homo sapiens, 120 h, 5 days.
From the text: as §1

The test system of a further assay is U87MG. Described as above. Type of assay: cell-based. Conditions: Homo sapiens, U-87 MG, 120 h, 5 days.
From the text: as §1

Another assay relates to BXPC-3. The description is as above. Format: cell-based. Conditions: Homo sapiens, 120 h, 5 days.
From the text: as §1

A further assay deals with Panc2.03. The description is as above. Format: cell-based. Conditions: Homo sapiens, Panc203, 120 h, 5 days.
From the text: as §1

The test system of the next assay is S2-013. The assay is described as above. Type of assay: cell-based. Conditions: Homo sapiens, 120 h, 5 days.
From the text: as §1

For a further assay, the system named is U118MG. As to the kind of experiment: 5-FU toxicity, MTS assay. Type of assay: cell-based. Conditions: Homo sapiens, U-118-MG, 120 h, 5 days. The procedure: (§2) Tumor cells (5×10^4) were plated in 96 well plates and allowed to adhere overnight. Cells were then incubated continuously in the presence of increasing concentrations of 5-FU (0-200 μg/ml) and assayed for toxicity using an MTS assay (Promega, Madison Wis.) after 5-days. ICx values were calculated as previously described. U251MG glioma cells were as sensitive to 5-FU as LS174T and WiDR colon carcinoma cells, while D54MG, U87MG and U118MG glioma cells and AsPC-1 pancreatic carcinoma cells were 3-fold less sensitive (Table 2).
(In general: Tetrazolium dyes change colour on reduction, which living cells bring about.)

Assay [3] has as its system D54MG. The experiment in a line: 5-FU toxicity, MTS assay. Conditions: Homo sapiens, 120 h, 5 days. Format: cell-based. Here is the method:
as §2

`Nc1nc(=O)[nH]cc1F` [5-FC, 5-fluorocytosine]: in assay [1], the “Survival 20%” value worked out at 30 and the “Survival Median” value was 29. Moreover, the “mean time to tumor doubling” value in the assay on D54MG xenografts (5-FC alone) came out at 13 days. The “mean time to tumor doubling” value in the assay with D54MG xenografts (5-FC plus radiation (3×2 Gy)) came out at 15 days.

The IC50 is the concentration at which inhibition is half-maximal. Read a low IC50 as greater potency in that assay. Broadly, the IC20 is the point of the concentration-response curve where the effect stands at 20%. For orientation: IC80 means the concentration at which the effect reaches the 80% level. With `O=c1[nH]cc(F)c(=O)[nH]1` [5-FU, 5-fluorouracil], the IC50 in the assay on U251MG is 2.5 ± 1.2 µg/mL (≈ 19.2 µM); in the assay with S2-VP10 it was 2.7 ± 0.1 µg/mL (≈ 20.8 µM); in the assay with D54MG [2] it was 3.9 ± 0.8 µg/mL (≈ 30 µM); with MIA PaCa-2, 1.4 µg/mL (≈ 10.8 µM); in the assay on PANC-1, 1.5 ± 0.5 µg/mL (≈ 11.5 µM); in the assay with U87MG it was 0.9 ± 0.5 µg/mL (≈ 6.92 µM). Moreover, the IC50 with BXPC-3 was 0.1 µg/mL (≈ 0.769 µM); in the assay with Panc2.03 it was 12.4 µg/mL (≈ 95.3 µM); with S2-013 it was 0.5 ± 0.1 µg/mL (≈ 3.84 µM); in the assay on U118MG, 1.06 µg/mL (≈ 8.15 µM); in the assay with D54MG [3], 1.1 µg/mL (≈ 8.46 µM). The IC20 in the assay with U118MG was found to be 0.24 µg/mL (≈ 1.85 µM); with D54MG [3] it was 0.33 µg/mL (≈ 2.54 µM). In addition, the IC80 with U118MG stood at 61.5 µg/mL (≈ 473 µM); in the assay on D54MG [3], 8.53 µg/mL (≈ 65.6 µM).
